{"source": "patent US20100168102A9", "about": "“Amide Derivatives as Kinase Inhibitors” (Devgen NV, priority 2005, published 2010)", "key": {"human ROCKα/ROCKII mix": {"target": "T1, human ROCKα/ROCKII mix (Homo sapiens, UniProt O75116)", "T1 construct": "purchased Upstate Biotechnology 14-451", "T1 sequence (O75116 11-552 limits assumed)": "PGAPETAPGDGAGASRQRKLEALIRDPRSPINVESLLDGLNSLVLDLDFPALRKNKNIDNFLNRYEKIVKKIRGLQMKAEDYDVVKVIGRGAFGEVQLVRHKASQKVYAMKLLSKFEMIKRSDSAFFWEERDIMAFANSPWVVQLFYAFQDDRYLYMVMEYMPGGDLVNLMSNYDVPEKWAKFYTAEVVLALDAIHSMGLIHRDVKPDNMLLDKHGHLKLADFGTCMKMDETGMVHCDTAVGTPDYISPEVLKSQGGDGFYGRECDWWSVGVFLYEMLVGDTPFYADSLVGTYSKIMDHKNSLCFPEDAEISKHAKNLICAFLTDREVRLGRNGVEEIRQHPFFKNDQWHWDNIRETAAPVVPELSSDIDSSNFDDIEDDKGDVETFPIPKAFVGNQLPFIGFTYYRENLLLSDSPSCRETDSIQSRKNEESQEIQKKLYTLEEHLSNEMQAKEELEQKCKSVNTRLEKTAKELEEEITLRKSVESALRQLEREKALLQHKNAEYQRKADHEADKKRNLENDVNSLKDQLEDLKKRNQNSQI", "test": "Biochemical assay for ROCK (fluorescence polarization, ROCK IMAP Kit)"}, "PKC epsilon": {"target": "T2, PKC epsilon (Homo sapiens, UniProt Q02156)", "T2 construct": "purchased Invitrogen P2282", "T2 sequence (Q02156 1-737)": "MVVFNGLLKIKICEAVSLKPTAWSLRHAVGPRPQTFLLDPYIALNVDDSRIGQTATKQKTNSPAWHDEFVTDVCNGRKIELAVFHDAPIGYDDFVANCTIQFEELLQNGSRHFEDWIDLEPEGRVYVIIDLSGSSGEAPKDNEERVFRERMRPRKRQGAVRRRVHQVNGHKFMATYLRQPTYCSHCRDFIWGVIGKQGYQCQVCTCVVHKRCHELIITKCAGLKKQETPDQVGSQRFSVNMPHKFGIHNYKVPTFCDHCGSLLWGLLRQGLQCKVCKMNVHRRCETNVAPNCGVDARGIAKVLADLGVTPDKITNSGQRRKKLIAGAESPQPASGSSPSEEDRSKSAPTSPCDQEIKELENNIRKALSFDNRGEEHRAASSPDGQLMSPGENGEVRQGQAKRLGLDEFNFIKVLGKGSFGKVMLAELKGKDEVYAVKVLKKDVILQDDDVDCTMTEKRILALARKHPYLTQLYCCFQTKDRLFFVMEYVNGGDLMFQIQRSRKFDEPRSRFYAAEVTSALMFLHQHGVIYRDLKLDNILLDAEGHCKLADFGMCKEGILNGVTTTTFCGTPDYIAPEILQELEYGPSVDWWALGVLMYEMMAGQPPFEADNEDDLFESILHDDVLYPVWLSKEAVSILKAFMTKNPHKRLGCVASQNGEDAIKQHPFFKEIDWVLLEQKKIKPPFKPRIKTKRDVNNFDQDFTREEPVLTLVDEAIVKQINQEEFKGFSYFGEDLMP", "test": "Biochemical assay for PKC epsilon (fluorescence polarization, Protein Kinase C Assay Kit, Red)", "conditions": "read-out: IC50 μM PKCε", "procedure,_shortened": "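Read-out was fluorescence-polarization competition between phosphorylated substrate and a rhodamine PKC tracer for an anti-phosphoserine antibody, added with EDTA stop after an 80 min room-temperature kinase reaction with ATP and protein substrate (Mg2+/Ca2+ buffer). Enzyme (10 ng/ml final) was preincubated with compound for 30 min.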"}, "[1]": {"conditions": "compounds of Formula XIV, Table 3"}, "[2]": {"conditions": "Table 2, compounds of Formula XIII"}}, "note": "Like-named read-outs stand apart in the source and are kept apart here.", "data": [{"compound": "Cc1cccc(CN2CCC(NC(=O)CC(N)c3ccc(C(=O)Nc4ccncc4)cc3)CC2)c1", "note": "(stereo not shown) [Compound 201, 4-{1-amino-2-[1-(3-methyl-benzyl)-piperidin-4-ylcarbamoyl]-ethyl}-N-pyridin-4-yl-benzamide]", "values": [{"measurement": "IC50", "setting": "human ROCKα/ROCKII mix; [1]", "result": "0.05 to 0.5", "unit": "µM"}, {"measurement": "IC50", "setting": "PKC epsilon; [1]", "result": "0.5 to 5", "unit": "µM"}]}, {"compound": "NC(CNC(=O)[C@H]1CCC(=O)N1)c1ccc(C(=O)Nc2ccncc2)cc1", "note": "(stereo partly drawn) [Compound 68, 5-Oxo-pyrrolidine-2-(R)-carboxylic acid {2-amino-2-[4-(pyridin-4-ylcarbamoyl)-phenyl]-ethyl}-amide]", "values": [{"measurement": "IC50", "setting": "human ROCKα/ROCKII mix; [2]", "result": "0.05 to 0.5", "unit": "µM"}, {"measurement": "IC50", "setting": "PKC epsilon; [2]", "result": "5 to 50", "unit": "µM"}]}, {"compound": "CC(C)CC(=O)NCC(N)c1ccc(C(=O)Nc2ccncc2)cc1", "note": "(stereo not shown) [Compound 34, 4-[1-Amino-2-(3-methyl-butyrylamino)-ethyl]-N-pyridin-4-yl-benzamide]", "values": [{"measurement": "IC50", "setting": "human ROCKα/ROCKII mix; [2]", "result": "0.5 to 5", "unit": "µM"}, {"measurement": "IC50", "setting": "PKC epsilon; [2]", "result": "0.5 to 5", "unit": "µM"}]}, {"compound": "4-{1-Amino-2- [(benzo[1,3]dioxol-5- ylmethyl)-carbamoyl]-ethyl}- N-pyridin-4-yl-benzamide [Compound 245]", "values": [{"measurement": "IC50", "setting": "human ROCKα/ROCKII mix; [1]", "result": "0.05 to 0.5", "unit": "µM"}, {"measurement": "IC50", "setting": "PKC epsilon; [1]", "result": "0.5 to 5", "unit": "µM"}]}, {"compound": "NC(c1ccc(C(=O)Nc2ccncc2)cc1)C1CCCN1C(=O)C1CCCCc2ccc(F)cc21", "note": "(stereo not shown) [Compound 620, 4-{Amino-[1-(3-fluoro-6,7,8,9-tetrahydro-5H-benzocycloheptene-5-carbonyl)-pyrrolidin-2-yl]-methyl}-N-pyridin-4-yl-benzamide]", "values": [{"measurement": "IC50", "setting": "human ROCKα/ROCKII mix", "result": "5 to 50", "unit": "µM"}, {"measurement": "IC50", "setting": "PKC epsilon", "result": "5 to 50", "unit": "µM"}]}, {"compound": "NC(CC(=O)NC1c2ccccc2-c2ccccc21)c1ccc(C(=O)Nc2ccncc2)cc1", "note": "(stereo not shown) [Compound 227, 4-[1-Amino-2-(9H-fluoren-9-ylcarbamoyl)-ethyl]-N-pyridin-4-yl-benzamide]", "values": [{"measurement": "IC50", "setting": "human ROCKα/ROCKII mix; [1]", "result": "0.05 to 0.5", "unit": "µM"}, {"measurement": "IC50", "setting": "PKC epsilon; [1]", "result": "0.5 to 5", "unit": "µM"}]}, {"compound": "Cc1ccccc1CC(=O)N(C)CC(N)c1ccc(C(=O)Nc2ccncc2)cc1", "note": "(stereo not shown) [Compound 422, 4-{1-Amino-2-[methyl-(2-o-tolyl-acetyl)-amino]-ethyl}-N-pyridin-4-yl-benzamide]", "values": [{"measurement": "IC50", "setting": "human ROCKα/ROCKII mix", "result": "0.5 to 5", "unit": "µM"}, {"measurement": "IC50", "setting": "PKC epsilon", "result": "5 to 50", "unit": "µM"}]}, {"compound": "CN(CC(N)c1ccc(C(=O)Nc2ccncc2)cc1)C(=O)Cc1cc(F)ccc1F", "note": "(stereo not shown) [Compound 478, 4-(1-Amino-2-{[2-(2,5-difluoro-phenyl)-acetyl]-methyl-amino}-ethyl)-N-pyridin-4-yl-benzamide]", "values": [{"measurement": "IC50", "setting": "human ROCKα/ROCKII mix", "result": "0.5 to 5", "unit": "µM"}, {"measurement": "IC50", "setting": "PKC epsilon", "result": "5 to 50", "unit": "µM"}]}, {"compound": "NC(CNC(=O)c1nccc2ccccc12)c1ccc(C(=O)Nc2ccncc2)cc1", "note": "(stereo not shown) [Compound 110, Isoquinoline-1-carboxylic acid {2-amino-2-[4-(pyridin-4-ylcarbamoyl)-phenyl]-ethyl}-amide]", "values": [{"measurement": "IC50", "setting": "human ROCKα/ROCKII mix; [2]", "result": "0.5 to 5", "unit": "µM"}, {"measurement": "IC50", "setting": "PKC epsilon; [2]", "result": "0.5 to 5", "unit": "µM"}]}, {"compound": "NC(CNC(=O)C1(c2ccc(Cl)cc2F)CC1)c1ccc(C(=O)Nc2ccncc2)cc1", "note": "(stereo not shown) [Compound 389, 4-(1-Amino-2-{[1-(4-chloro-2-fluoro-phenyl)-cyclopropanecarbonyl]-amino}-ethyl)-N-pyridin-4-yl-benzamide]", "values": [{"measurement": "IC50", "setting": "human ROCKα/ROCKII mix; [2]", "result": "0.05 to 0.5", "unit": "µM"}, {"measurement": "IC50", "setting": "PKC epsilon; [2]", "result": "< 0.05", "unit": "µM"}]}, {"compound": "NC(CNC(=O)Cc1ccc(F)cc1)c1ccc(C(=O)Nc2ccncc2)cc1", "note": "(stereo not shown) [Compound 148, 4-{1-Amino-2-[2-(4-fluoro-phenyl)-acetylamino]-ethyl}-N-pyridin-4-yl-benzamide]", "values": [{"measurement": "IC50", "setting": "human ROCKα/ROCKII mix; [2]", "result": "0.05 to 0.5", "unit": "µM"}, {"measurement": "IC50", "setting": "PKC epsilon; [2]", "result": "0.05 to 0.5", "unit": "µM"}]}, {"compound": "NC(c1ccc(C(=O)Nc2ccncc2)cc1)C1CCCN1C(=O)C1CCCc2sccc21", "note": "(stereo not shown) [Compound 621, 4-{Amino-[1-(4,5,6,7-tetrahydro-benzo[b]thiophene-4-carbonyl)-pyrrolidin-2-yl]-methyl}-N-pyridin-4-yl-benzamide]", "values": [{"measurement": "IC50", "setting": "human ROCKα/ROCKII mix", "result": "0.05 to 0.5", "unit": "µM"}, {"measurement": "IC50", "setting": "PKC epsilon", "result": "0.5 to 5", "unit": "µM"}]}, {"compound": "NC(c1ccc(C(=O)Nc2ccncc2)cc1)C1CCCN1C(=O)C1CCOc2ccc(Cl)cc21", "note": "(stereo not shown) [Compound 616, 4-{Amino[1-(6-chloro-chroman-4-carbonyl)-pyrrolidin-2-yl]-methyl}-N-pyridin-4-benzamide]", "values": [{"measurement": "IC50", "setting": "human ROCKα/ROCKII mix", "result": "0.5 to 5", "unit": "µM"}, {"measurement": "IC50", "setting": "PKC epsilon", "result": "0.5 to 5", "unit": "µM"}]}, {"compound": "NC(c1ccc(C(=O)Nc2ccncc2)cc1)C1CCCN1C(=O)C1(c2ccc(Cl)cc2)CCC1", "note": "(stereo not shown) [Compound 565, 4-(Amino-{1-[1-(4-chloro-phenyl)-cyclobutanecarbonyl]-pyrrolidin-2-yl}-methyl)-N-pyridin-4-yl-benzamide]", "values": [{"measurement": "IC50", "setting": "human ROCKα/ROCKII mix", "result": "0.5 to 5", "unit": "µM"}, {"measurement": "IC50", "setting": "PKC epsilon", "result": "0.5 to 5", "unit": "µM"}]}]}
